Test results reported in patent publication US5948755A, “Cyclosporin compound, its preparation and the pharmaceutical compositions which contain it” (Rhone-Poulenc Rorer S.A., priority 1996, dated 1999).

Legend:
[1] = test system: retrovirus (HIV); conditions: read-out: average for the active concentrations (IC50); technique of Pauwells et al.; first of the two values printed
[2] = at concentrations displaying anti-retrovirus activity
[3] = EP 484281 and Eur. J. Immunol., 17, 1359 (1987); cited from earlier work

Molecule | IC50 [1] [µM] | cytotoxic or cytostatic effect [2] | immunosuppressing nature [3]
C/C=C/C[C@@H](C)[C@@H](O)[C@H]1C(=O)N[C@@H](CC)C(=O)N(C)[C@H](SC)C(=O)N(C)[C@@H](CC(C)(C)O)C(=O)N[C@@H](C(C)C)C(=O)N(C)[C@@H](CC(C)C)C(=O)N[C@@H](C)C(=O)N[C@H](C)C(=O)N(C)[C@@H](CC(C)C)C(=O)N(C)[C@@H](CC(C)C)C(=O)N(C)[C@@H](C(C)C)C(=O)N1C [formula (I), [(R)-Methylthio-Sar]^3-[4'-hydroxy-MeLeu]^4-cyclosporin A] | 0.07 | devoid of any cytotoxic or cytostatic effect | 
[4'-hydroxy-MeLeul]^4 -cyclosporin |  |  | are not immunosuppressants
